Laboratory results from ChEMBL document CHEMBL1201862, “PubChem BioAssay data set” (2004).
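These data come from cells grown in 96-well plates and exposed to compound for 48 hours at five concentrations. GI50: concentration for 50% inhibition of growth.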 Calls of active or inactive are those of the source. Rule as the data show it: active = GI50 up to about 1.1 µM and inactive = higher.

How the values were obtained:
Assay in all cases: DTP human tumour cell line panel, 48 h
SF-539 = test system: SF-539
MDA-MB-435 = test system: MDA-MB-435
HL-60 = test system: HL-60
Hs-578T = test system: Hs-578T
Malme-3M = test system: Malme-3M
NCI-H460 = test system: NCI-H460
HCC 2998 = test system: HCC 2998
OVCAR-3 = test system: OVCAR-3
M14 = test system: M14
SNB-75 = test system: SNB-75
ACHN = test system: ACHN
LOX IMVI = test system: LOX IMVI
DU-145 = test system: DU-145
U-251 = test system: U-251
NCI-H23 = test system: NCI-H23
SF-268 = test system: SF-268
SR = test system: SR
MCF7 = test system: MCF7
A498 = test system: A498
RXF 393 = test system: RXF 393

Compound | GI50 (SF-539) | GI50 (MDA-MB-435) | GI50 (HL-60) | GI50 (Hs-578T) | GI50 (Malme-3M) | GI50 (NCI-H460) | GI50 (HCC 2998) | GI50 (OVCAR-3) | GI50 (M14) | GI50 (SNB-75) | GI50 (ACHN) | GI50 (LOX IMVI) | GI50 (DU-145) | GI50 (U-251) | GI50 (NCI-H23) | GI50 (SF-268) | GI50 (SR) | GI50 (MCF7) | GI50 (A498) | GI50 (RXF 393)
O=[N+]([O-])c1ccc(/C=C/c2cc(-c3ccccc3)nc3ccc4ccccc4c23)cc1 | > 100 µM (inactive) | > 100 µM (inactive) | > 100 µM (inactive) | > 100 µM (inactive) | > 100 µM (inactive) | > 100 µM (inactive) | > 100 µM (inactive) | > 100 µM (inactive) | > 100 µM (inactive) | 16.9 µM (inactive) | > 100 µM (inactive) | > 100 µM (inactive) | > 100 µM (inactive) | > 100 µM (inactive) | > 100 µM (inactive) | > 100 µM (inactive) | > 100 µM (inactive) | 57 µM (inactive) | > 100 µM (inactive) | > 100 µM (inactive)
Cc1cc(NC(=O)NC(=O)c2ccccc2NC(=O)C(C)N)ccc1Oc1ncc(Br)cn1 (stereo not given) | 0.0158 µM (active) | 0.0254 µM (active) | 0.0131 µM (active) | 0.0159 µM (active) | 0.188 µM (active) | 0.179 µM (active) | 0.298 µM (active) | 0.0196 µM (active) | 0.13 µM (active) | < 0.01 µM (active) | 1.22 µM (inactive) | 0.173 µM (active) | 0.136 µM (active) | 0.202 µM (active) | 0.172 µM (active) | 0.408 µM (active) | 0.111 µM (active) | 0.152 µM (active) | 0.025 µM (active) | 0.0111 µM (active)
C#CCn1c(=O)c(C)cn(/C(=C/C(=O)OCC)C(=O)OCC)c1=O | 1.64 µM (inactive) | 6.35 µM (inactive) | 3.61 µM (inactive) | 10.6 µM (inactive) | 1.59 µM (inactive) | 1.95 µM (inactive) | 17.8 µM (inactive) | 7.16 µM (inactive) | 2.92 µM (inactive) | 15 µM (inactive) | 1.84 µM (inactive) | 10.4 µM (inactive) | 10.4 µM (inactive) | 9.98 µM (inactive) | 9.57 µM (inactive) | 12.4 µM (inactive) | 3.5 µM (inactive) | 2.97 µM (inactive) | 16 µM (inactive) | 0.569 µM (active)
Nc1ccc2c(SCc3ccc([N+](=O)[O-])cc3)c3ccccc3nc2c1 | 16.4 µM (inactive) | 14.5 µM (inactive) | 1.31 µM (inactive) | 17.6 µM (inactive) | 13.5 µM (inactive) | 21.7 µM (inactive) | 21.5 µM (inactive) | 15.8 µM (inactive) | 11.4 µM (inactive) | 17.7 µM (inactive) | 5 µM (inactive) | 6.84 µM (inactive) | 13.4 µM (inactive) | 18.2 µM (inactive) | 17 µM (inactive) | 15.2 µM (inactive) | 1.42 µM (inactive) | 13.6 µM (inactive) | 22.5 µM (inactive) | 19.4 µM (inactive)
C/C=C(\N=C=S)C(=O)OC1C(COC(C)=O)OC([C@]2(O)CC(=O)C(N)=C(C(=O)O)C2=O)C(O)C1OC1CC(OC)C(O)([C@@H](C)OC(=O)[C@@H](C)CC)C(C)O1 (stereo not given in full) | 7.53 µM (inactive) | 17.3 µM (inactive) | 2.12 µM (inactive) | 7.82 µM (inactive) | 9.57 µM (inactive) | 20.7 µM (inactive) | 18.9 µM (inactive) | 15.8 µM (inactive) | 16 µM (inactive) | 16.9 µM (inactive) | 18.3 µM (inactive) | 6.34 µM (inactive) | 18.9 µM (inactive) | 9.27 µM (inactive) | 9.84 µM (inactive) | 9.57 µM (inactive) | 4.39 µM (inactive) | 14.5 µM (inactive) | 35 µM (inactive) | 5.35 µM (inactive)
COc1ccc2cc(CN3CCC(C4CCNCC4)CC3)ccc2c1 | 1.71 µM (inactive) | 1.91 µM (inactive) | 1.49 µM (inactive) | 2.93 µM (inactive) | 1.72 µM (inactive) | 1.93 µM (inactive) | 0.412 µM (active) | 5.41 µM (inactive) | 2.06 µM (inactive) | 1.91 µM (inactive) | 3.61 µM (inactive) | 1.6 µM (inactive) | 4.2 µM (inactive) | 1.91 µM (inactive) | 12 µM (inactive) | 2.58 µM (inactive) | 2.07 µM (inactive) | 2.11 µM (inactive) | 5.33 µM (inactive) | 2.28 µM (inactive)
CCOC(=O)CCc1cc(=O)oc2cc(O)cc(O)c12 | > 100 µM (inactive) | > 100 µM (inactive) | > 100 µM (inactive) | > 100 µM (inactive) | > 100 µM (inactive) | > 100 µM (inactive) | 52.7 µM (inactive) | > 100 µM (inactive) | > 100 µM (inactive) | > 100 µM (inactive) | > 100 µM (inactive) | > 100 µM (inactive) | > 100 µM (inactive) | > 100 µM (inactive) | > 100 µM (inactive) | > 100 µM (inactive) | > 100 µM (inactive) | > 100 µM (inactive) | 50.1 µM (inactive) | > 100 µM (inactive)
N#Cc1cccc(N2C(=O)C3C4C=CC(C3C2=O)C2C(=O)N(c3cccc(C#N)c3)C(=O)C42)c1 (stereo not given) | 29.3 µM (inactive) | > 100 µM (inactive) | > 80.9 µM (inactive) | 40 µM (inactive) | 53.6 µM (inactive) | > 63.1 µM (inactive) | > 56.2 µM (inactive) | > 77.3 µM (inactive) | 59 µM (inactive) | 6.12 µM (inactive) | 40.7 µM (inactive) | 61.9 µM (inactive) | > 100 µM (inactive) | 10.1 µM (inactive) | 27.6 µM (inactive) | 19.8 µM (inactive) | 37.6 µM (inactive) | > 100 µM (inactive) | 22.4 µM (inactive) | 10.2 µM (inactive)
Cn1c2ccc3cc2c(=S)c2cc(ccc21)OCCOCCOCCOCCOCCO3 | > 10 µM (inactive) | > 10 µM (inactive) | > 10 µM (inactive) | > 10 µM (inactive) | > 10 µM (inactive) | > 10 µM (inactive) | > 10 µM (inactive) | > 10 µM (inactive) | > 10 µM (inactive) | > 10 µM (inactive) | > 10 µM (inactive) | > 10 µM (inactive) | > 10 µM (inactive) | > 10 µM (inactive) | > 10 µM (inactive) | > 10 µM (inactive) | > 10 µM (inactive) | > 10 µM (inactive) | > 10 µM (inactive) | > 10 µM (inactive)
Oc1cc(-c2ccc(F)cc2)nc2ncc(Cl)cc12 | 27.6 µM (inactive) | 2.82 µM (inactive) | 3.38 µM (inactive) | 19.9 µM (inactive) | 15.7 µM (inactive) | 15.4 µM (inactive) | 58.6 µM (inactive) | 20.6 µM (inactive) | 26.9 µM (inactive) | 11.7 µM (inactive) | > 73.1 µM (inactive) | 28.6 µM (inactive) | 21.4 µM (inactive) | 21.7 µM (inactive) | 38.2 µM (inactive) | 67 µM (inactive) | 3.09 µM (inactive) | 12.3 µM (inactive) | 17.4 µM (inactive) | 17.2 µM (inactive)
